Data: patent US10865316B2 (Clemson University Research Foundation, priority 2015, dated 2020)
Entries after “also recorded” stand apart in the source; their conditions may differ.

Key:
oyster hemocytes = assay type: cell-based
3-day old cyprid = settings: in vivo

With “pGlu Gly Val Cys Cys Gly Tyr Lys Leu Cys His Hyp Cys-NH2 [SEQ ID NO: 13]” the “apoptosis in oyster hemocytes” value (oyster hemocytes) was “cause apoptosis” and the cyprid settlement (3-day old cyprid) was “inhibited cyprid settlement; also recorded: promoted settlement”.
